Reference: patent publication US11396522B2, “Bis-acetal-based substrates for imaging exo-glycosidase activity” (ALECTOS THERAPEUTICS INC., priority 2017, dated 2022)

What was measured:
[1] = target: T1, human Galactosylceramidase (GALC) (Homo sapiens, UniProt P54803); assay: In vitro kinetic assay with human GALC; assay type: biochemical; conditions: 5 nM recombinant human GALC
T1 construct: purchased R&D systems
T1 sequence (P54803 43-685): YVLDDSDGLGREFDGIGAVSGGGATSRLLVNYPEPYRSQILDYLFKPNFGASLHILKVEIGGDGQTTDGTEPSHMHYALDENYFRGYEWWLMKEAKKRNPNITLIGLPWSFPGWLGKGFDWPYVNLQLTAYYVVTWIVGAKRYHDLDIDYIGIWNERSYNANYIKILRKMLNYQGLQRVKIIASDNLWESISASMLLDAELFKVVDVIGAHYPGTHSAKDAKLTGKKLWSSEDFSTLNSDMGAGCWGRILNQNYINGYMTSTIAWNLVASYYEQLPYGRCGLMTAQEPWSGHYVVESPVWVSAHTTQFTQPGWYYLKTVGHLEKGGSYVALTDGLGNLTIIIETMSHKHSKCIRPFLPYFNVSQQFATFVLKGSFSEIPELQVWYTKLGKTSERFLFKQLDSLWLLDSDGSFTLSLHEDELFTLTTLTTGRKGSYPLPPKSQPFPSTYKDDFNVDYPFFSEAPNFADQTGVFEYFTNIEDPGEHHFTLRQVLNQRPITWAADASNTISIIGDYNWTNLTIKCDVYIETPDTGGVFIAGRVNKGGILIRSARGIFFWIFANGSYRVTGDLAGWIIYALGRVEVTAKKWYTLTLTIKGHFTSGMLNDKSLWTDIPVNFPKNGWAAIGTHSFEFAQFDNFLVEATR
Method: (§1) For some experiments, fluorescence kinetic assays were performed using a Varian Cary Eclipse Spectrophotometer set for 335/493 nm excitation/emission wavelengths. Slits were set at 10 nm and the detector was set on Medium voltage. Enzymatic reactions with human OGA were carried out in PBS at 37° C. and were started by addition of hOGA (WT, Full-length, expressed in E. coli. as previously described) in a total volume of 160 μL (Starna sub-micro Fluorometer cuvette). For measurements of rates using different concentrations of substrates, a hOGA concentration of 100 nM was used. For hOGA titration, 25 μM of Glyco-BABS were added to various concentration of hOGA. […] EDANS standard curve was established using endpoint fluorescence measurements of serial dilutions of EDANS in the relevant buffer using the same instrument parameters. Inner-Filter effect measurements were carried out in cuvette by measuring fluorescence of several concentrations of EDANS in presence of various concentrations of GlcNAc-BABS. Kinetics with Glc-BABS and GBA enzymes (GBA1 and GBA3 purchased from R&D Systems), kinetics with GALC (R&D systems) and Gal-BABS, pH stability, quenching efficiency, some inner-filter effect experiments and lysates experiments were carried out using a Molecular Devices SpectraMax i3× plate reader. […]

[2] = pH stability of Glyco-BABS; assay type: physicochemical; conditions: 5 μM, up to 72 h, pH 2 to 10
Description: One concern with the Glyco-BABS design was the known lability of acetals under acidic conditions that has been exploited in pH-sensitive prodrugs or linkers for drug delivery.^41,42 However, we recognized that carbohydrate anomeric acetals are chemically distinct from regular acetals. Due to stabilization by the endocyclic oxygen, we expected these bis-acetals would show stability across a range of physiological pH values. We therefore assessed the stability of the bis-acetal motif toward acid and base hydrolysis (FIG. 8). To do so, we tested the pH stability of 5 μM of GlcNAc-Br-BABS 1, GlcNAc-OH-BABS 2, Glc-OH-BABS 6 and Glc-H-BABS 7 at different pH over time. We prepared solutions at various pH by mixing 0.2 M KCl+0.1 M HCl with 0.2 M KCl+0.1 M KOH. Fluorescence of EDANS and Glyco-BABS solutions (5 μM, 45 μL) at different pH was measured at different time points in Nunc 384-well plates using a SpectraMax i3× plate reader. Data (triplicates) support the highly efficient quenching and the stability of these substrates over a wide range of pH.

GBA1 = target: T2, GBA1 (Homo sapiens, UniProt P04062); assay: In vitro kinetic assay with GBA1; assay type: biochemical; design: purchased R&D Systems; conditions: GBA enzymes at 50 nM
T2 sequence (P04062 40-536): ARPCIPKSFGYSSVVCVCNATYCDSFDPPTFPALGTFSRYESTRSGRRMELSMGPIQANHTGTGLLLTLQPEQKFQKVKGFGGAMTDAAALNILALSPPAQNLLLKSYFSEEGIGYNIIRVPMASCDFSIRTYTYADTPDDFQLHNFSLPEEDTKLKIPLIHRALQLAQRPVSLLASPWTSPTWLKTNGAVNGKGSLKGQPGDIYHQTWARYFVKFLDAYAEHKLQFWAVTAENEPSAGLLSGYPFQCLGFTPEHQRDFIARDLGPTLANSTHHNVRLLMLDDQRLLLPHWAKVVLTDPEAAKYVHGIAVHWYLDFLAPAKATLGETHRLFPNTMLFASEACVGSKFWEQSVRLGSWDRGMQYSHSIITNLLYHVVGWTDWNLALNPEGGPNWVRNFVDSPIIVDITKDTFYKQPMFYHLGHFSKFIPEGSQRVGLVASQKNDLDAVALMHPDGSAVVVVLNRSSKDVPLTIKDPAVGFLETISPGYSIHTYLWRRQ
Method: as §1

Row | turnover by human GALC [1] | pH stability (increase of fluorescence) [2] | turnover by GBA1 (GBA1) | Structure (SMILES)
1 | turned over | – | – | CN(C)c1ccc(/N=N/c2ccc(C(=O)NCc3cn(CCOCCO[C@H](O[C@@H]4O[C@H](CO)[C@H](O)[C@H](O)[C@H]4O)[C@@](C)(O)C(=O)NCCNc4cccc5c(S(=O)(=O)O)cccc45)nn3)cc2)cc1 [Compound 5, 5-((2-((2R,3R)-3-(2-(2-(4-((4-((E)-(4-(dimethylamino)phenyl)diazenyl)benzamido)methyl)-1H-1,2,3-triazol-1-yl)ethoxy)ethoxy)-2-hydroxy-2-methyl-3-(((2S,3R,4S,5R,6R)-3,4,5-trihydroxy-6-(hydroxymethyl)tetrahydro-2H-pyran-2-yl)oxy)propanamido)ethyl)amino)naphthalene-1-sulfonic Acid]
2 | – | no significant increase of fluorescence | turned over by GBA1 only | CN(C)c1ccc(/N=N/c2ccc(C(=O)NCc3cn(CCOCCOC(CC(=O)NCCNc4cccc5c(S(=O)(=O)O)cccc45)O[C@@H]4O[C@H](CO)[C@@H](O)[C@H](O)[C@H]4O)nn3)cc2)cc1 (stereo partly drawn) [Compound 7, 5-((2-(3-(2-(2-(4-((4-((E)-(4-(dimethylamino)phenyl)diazenyl)benzamido)methyl)-1H-1,2,3-triazol-1-yl)ethoxy)ethoxy)-3-(((2S,3R,4S,5S,6R)-3,4,5-trihydroxy-6-(hydroxymethyl)tetrahydro-2H-pyran-2-yl)oxy)propanamido)ethyl)amino)naphthalene-1-sulfonic Acid]
3 | turned over | – | – | CN(C)c1ccc(/N=N/c2ccc(C(=O)NCc3cn(CCOCCO[C@H](O[C@@H]4O[C@H](CO)[C@H](O)[C@H](O)[C@H]4O)[C@@](C)(Br)C(=O)NCCNc4cccc5c(S(=O)(=O)O)cccc45)nn3)cc2)cc1 [Compound 4, 5-((2-((2R,3R)-2-bromo-3-(2-(2-(4-((4-((E)-(4-(dimethylamino)phenyl)diazenyl)benzamido)methyl)-1H-1,2,3-triazol-1-yl)ethoxy)ethoxy)-2-methyl-3-(((2S,3R,4S,5R,6R)-3,4,5-trihydroxy-6-(hydroxymethyl)tetrahydro-2H-pyran-2-yl)oxy)propanamido)ethyl)amino)naphthalene-1-sulfonic Acid]
